Values quoted from earlier work in US9962342B1, “Pharmaceutical composition containing guaifenesin and application thereof” (Sunny Pharmtech Inc., priority 2017, dated 2018).

Details: in vivo

In the case of `COc1ccccc1OCC(O)CO` (stereo not shown) [Guaifenesin], the half-life is given as “approximately 1 hour”.
